In publication PMC9814792 (Communications Chemistry, 2022):

Columns and labels:
[1] = test system: CT26 allografts; assay: In vivo anticancer activity, CT26 allografts; set-up: species or system BALB/c mice; settings: for tumor doubling time extended: CT26 allografts, equimolar doses; for tumor doubling time extended / maximal tumor growth inhibition: twice a week for two weeks; for maximal tumor growth inhibition: day 11, CT26 allografts, equimolar to 9 mg/kg oxaliplatin i.v.; for tumor volumes as compared to solvent controls: first two weeks of treatment
Experimental: (§1) Eight-to nine-week-old female BALB/c mice bred in-house (originally Janvier) were kept in pathogen-free conditions and controlled environment with 12 h light-dark cycle. CT26 cells (5 × 10^5 in 50 µL serum-free RPMI medium) were injected subcutaneously (s.c.) into the right flank of the animals. […] Tumor growth was evaluated by daily recording of tumor size by caliper measurement. […] The reasons were primarily either enhanced tumor size or ulceration. For drug distribution (digestion and ICP-MS measurement details see below), histological and GSH determination experiments, mice were treated twice during one week and sacrificed 24 h after the last drug dosing. The animal experiments were performed according to the regulations of the Ethics Committee for the Care and Use of Laboratory Animals at the Medical University Vienna (proposal number BMBWF-V/3b 2020-0.380.502).

[2] = target: T1, albumin (Bos taurus, UniProt P02769); assay: Albumin binding in fetal calf serum by SEC-ICP-MS; assay type: in vitro ADME; settings: fetal calf serum 37 °C, 100 μM
T1 construct: tissue Sigma-Aldrich; host or cells: fetal calf serum
T1 sequence (P02769 25-607): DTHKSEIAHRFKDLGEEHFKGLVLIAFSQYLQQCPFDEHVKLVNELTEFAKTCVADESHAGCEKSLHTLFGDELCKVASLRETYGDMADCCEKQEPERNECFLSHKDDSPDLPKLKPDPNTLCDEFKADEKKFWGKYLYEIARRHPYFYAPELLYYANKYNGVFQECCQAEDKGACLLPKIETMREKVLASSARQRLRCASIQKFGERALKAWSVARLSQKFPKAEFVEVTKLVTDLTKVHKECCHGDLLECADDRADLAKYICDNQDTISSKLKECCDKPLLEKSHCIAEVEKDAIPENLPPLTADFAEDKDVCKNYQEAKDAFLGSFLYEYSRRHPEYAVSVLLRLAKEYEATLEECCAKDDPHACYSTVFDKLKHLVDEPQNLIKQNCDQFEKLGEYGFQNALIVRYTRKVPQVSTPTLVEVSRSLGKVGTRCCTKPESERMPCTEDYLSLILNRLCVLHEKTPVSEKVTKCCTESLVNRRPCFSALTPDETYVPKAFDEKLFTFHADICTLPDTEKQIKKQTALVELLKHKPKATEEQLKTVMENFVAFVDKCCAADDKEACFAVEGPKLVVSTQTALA
Experimental: Fetal calf serum was purchased from Sigma-Aldrich and buffered with 150 mM phosphate buffer (pH 7.4) to guarantee a stable pH. The platinum(IV) complexes were dissolved in 150 mM phosphate buffer (pH 7.4) to 1 mM and diluted 1:10 in serum to obtain a final concentration of 100 μM. The samples were then incubated in the autosampler at 37 °C for 24 h and analyzed at 0 h, 1 h, 4 h, and 24 h. Between each sample, a pure water blank was measured. For SEC-ICP-MS measurements, an Agilent 1260 Infinity system coupled to an Agilent 7800 ICP-MS equipped with a dynamic reaction cell was used. Oxygen (purity 5.5, Messer AustriaGmbH, Gumpoldskirchen, Austria) was used as reaction gas at 30% and 0.9 L/min flow.

[3] = Tissue/organ platinum distribution in CT26 allograft mice; assay type: in vivo, BALB/c mice; settings: two i.v. doses in one week, 24 h after second dosing
Experimental: (§2) Eight-to nine-week-old female BALB/c mice bred in-house (originally Janvier) were kept in pathogen-free conditions and controlled environment with 12 h light-dark cycle. CT26 cells (5 × 10^5 in 50 µL serum-free RPMI medium) were injected subcutaneously (s.c.) into the right flank of the animals. […] Tumor growth was evaluated by daily recording of tumor size by caliper measurement. […] For drug distribution (digestion and ICP-MS measurement details see below), histological and GSH determination experiments, mice were treated twice during one week and sacrificed 24 h after the last drug dosing. The animal experiments were performed according to the regulations of the Ethics Committee for the Care and Use of Laboratory Animals at the Medical University Vienna (proposal number BMBWF-V/3b 2020-0.380.502).

[4] = test system: CT26 tumor tissue; assay: Tumor tissue markers (mitoses, Ki-67, pH2AX, GSH) after one week of therapy; assay type: in vivo, BALB/c mice; settings: for number of mitotic tumor cells as compared to solvent controls: H&E-stained sections
Experimental: as §2
(§3) Formalin-fixed, paraffin-embedded tissue sections were prepared from tumors and animal organs (animal experiment details see above) and H&E stains performed by standard methods. Mouse-specific Ki-67 rabbit mAb (#12202) and mouse-specific pH2AX rabbit mAb (#9718) were purchased from Cell Signaling Technology (Beverly, MA, USA) and used following the manufacturer’s recommendations in a dilution of 1:200 (Ki-67) and 1:500 (pH2AX) for immunohistochemical staining.
(§4) GSH levels in HCT116 and HCT116/OxR cells (7.5 × 10^4 cells per well in 96-well plates, in triplicate), or in CT26 tumor tissues (25–50 mg/sample) were determined using the luminescence-based detection system GSH/GSSG-Glo^TM assay (Promega, Madison, WI) following the manufacturer’s recommendations. Quantifications are based on the comparison with a GSH standard curve delivered in the assay and normalized to the total protein content of the samples determined by the Micro BCA^TM protein assay kit (Thermo Scientific).

[5] = Serum pharmacokinetics (platinum by ICP-MS) after single dose; assay type: in vivo, BALB/c mice; settings: for serum half-life (fast), two-phase decay model / serum half-life (slow), two-phase decay model / serum half-life, one-phase decay model: serum platinum
Experimental: Blood was drawn after 5 min, 30 min, 6 h, 24 h, 72 h, 1 and 2 weeks from the facial vein as published. Serum was isolated by centrifugation at 900 g for 10 min for two times and stored at –80 °C. In addition, blood samples and tissues from the allograft experiment after the two-weeks therapy experiment were analyzed. Digestion of tissue (approx. 10–30 mg gravimetrically weighted) was performed with 2 mL of approx. 20% nitric acid and 100 µL H2O2 using an open vessel graphite digestion system (coated graphite heating plate, coated sample holder-top for 25 mL vials, perfluoroalkoxy (PFA) vials and PFA lids; Labter, ODLAB; AHF Analysentechnik AG; Germany). HNO3 (67–69%, suprapur for trace metal analysis, NORMATOM; VWR international, Austria) and conc. H2O2 suprapur (Merck, 30%) were used without further purification. Ultrapure water (18.2 MΩ cm, Milli-Q Advantage, Darmstadt, Germany) was used for all dilutions for ICP-MS measurements. Platinum and rhenium standards for ICP-MS measurements were derived from CPI International (Amsterdam, The Netherlands). The platinum content was determined using an Agilent 7800 ICP-MS instrument. The ICP-MS Agilent 7800® (Agilent Technologies, Tokyo, Japan) was equipped with an Agilent SPS 4 autosampler (Agilent Technologies, Tokyo, Japan) and a MicroMist nebulizer at a sample uptake rate of approx. 0.2 mL/min. The Agilent MassHunter® software package (Workstation Software, version C.01.04, Build 544.17, Patch 3, 2018) was used for data processing. The instrument was tuned on a daily basis to achieve maximum sensitivity. In case of the single-dose experiment, serum area-under the curve (AUC) and serum half-life (one-phase and two-phase decay models) were determined using the respective non-linear fit regression models of GraphPad Prism software.

[6] = test system: kidney, lung, liver sections; assay: pH2AX DNA damage staining in healthy organs; assay type: in vivo, BALB/c mice; settings: lung and kidney sections
Experimental: as §1, §3

[7] = test system: A2780/Cis cells; assay: 72 h cell viability (MTT) assay; assay type: cell-based, human
Experimental: (§5) Cells were seeded (3–4 ×10^3 cells/well) in 96-well plates in 100 µL and after 24 h recovery treated with 100 µL of compounds at the indicated concentrations in triplicates. After 72 h drug exposure cell viability was determined by 3-(4,5-dimethylthiazol-2-yl)-2,5-diphenyltetrazolium bromide (MTT)-vitality assay (EZ4U, Biomedica, Vienna, Austria) following the manufacturer’s recommendations, as published. Absorbance was measured at 450 nm (at 620 nm as reference) using the multimode plate reader Tecan Infinite 200 Pro (Zurich, Switzerland). Cytotoxicity was expressed as IC50 values calculated from full dose-response curves using the 4 parameter nonlinear regression model of GraphPad Prism 8 software (La Jolla, CA, USA).

[8] = test system: A2780 cells; assay: 72 h cell viability (MTT) assay; assay type: cell-based, human; settings: A2780, 72 h continuous exposure; read-out: IC50 value (95% confidence interval)
Experimental: as §5

[9] = test system: HCT116/OxR cells; assay: 72 h cell viability (MTT) assay; assay type: cell-based, human; settings: HCT116/OxR, 72 h continuous exposure; read-out: IC50 value (95% confidence interval)
Experimental: Absorbance was measured at 450 nm (at 620 nm as reference) using the multimode plate reader Tecan Infinite 200 Pro (Zurich, Switzerland). Cytotoxicity was expressed as IC50 values calculated from full dose-response curves using the 4 parameter nonlinear regression model of GraphPad Prism 8 software (La Jolla, CA, USA).

[10] = test system: HCT116 and HCT116/OxR cells; assay: Cellular GSH content (GSH/GSSG-Glo); assay type: cell-based, human; settings: 24 h exposure, single agent
Experimental: as §4

[11] = test system: HCT116 and HCT116/OxR cells; assay: In vitro platinum cell uptake by ICP-MS; assay type: cell-based, human; settings: 3 h exposure
Experimental: Cells were seeded at 1.5 ×10^5 cells/well in six-well plates in 1.5 mL and after 24 h recovery treated with 500 µL of compounds at the indicated concentrations in triplicates. After 3 h drug exposure, cells were detached, washed twice with phosphate-buffered saline (PBS), dried at RT for 15 min and lysed in 100 µL HNO3 (69%, Rotipuran Supra, Carl Roth, Karlsruhe, Germany) for 1 h at RT. The lysate was added to fresh tubes containing 200 µL ddH2O. ICP-MS measurements were performed with an Agilent 8800 ICP-MS/MS instrument (Agilent Technologies, Tokyo, Japan). The sample introduction system consisted of a MicroMist nebulizer (200 μL min^−1 nominal sample uptake) and a quartz double-pass spray chamber. The instrument was tuned on a daily basis in order to achieve maximum sensitivity, low oxide formation, and low doubly charged ratios. Platinum was monitored in no gas mode with an integration time of 0.3 s. The flow injection measurements were performed with a bioinert HPLC 1260 (Agilent Technologies, Waldbronn, Germany), which was directly connected to the nebulizer of the ICP-MS/MS instrument with a PEEK tubing. The following chromatographic conditions were used: injection volume: 10 µL; flow rate: 0.30 mL min^-1; isocratic elution; CH3COONH4 (50 mM, pH = 6.8) aqueous solution was employed as mobile phase. The data were recorded and evaluated with the Agilent MassHunter Chromatography software package, MassHunter 4.6., 2019.

[12] = test system: HaCat keratinocytes; assay: 72 h cell viability (MTT) assay; assay type: cell-based, human
Experimental: as §5

[13] = test system: BEC endothelial cells; assay: 72 h cell viability (MTT) assay; assay type: cell-based, human
Experimental: as §5

[14] = test system: HCT116 cells; assay: 72 h cell viability (MTT) assay; assay type: cell-based, human; settings: HCT116, 72 h continuous exposure; read-out: IC50 value (95% confidence interval)
Experimental: as §5

[15] = Tolerability in mice; assay type: in vivo, BALB/c mice
Experimental: as §1

[16] = set-up: method as in PMID 7895599; settings: patients; cited from earlier work

Structure (SMILES): CCCCS(=N)(=O)CCC(NC(=O)[O][Pt]1([O]C(=O)NCCCCCN2C(=O)C=CC2=O)[O]C(=O)C(=O)[O]1)C(=O)O.NC1CCCCC1N (mixture of isomers) [BSO-OxMal, (OC-6-24)-((1 S)-3-(Butylsulfonimidoyl)-1-carboxypropyl)carbamato(1 R,2 R)-1,2-cyclohexanediamino(5-(2,5-dioxo-2,5-dihydro-1H-pyrrol-1-yl)pentyl)carbamatooxalatoplatinum(IV)]
- tumor doubling time extended [1]: 1.8 fold
- overall survival ([1]; Kaplan Meier, Mantel-Cox test): significantly increased overall survival
- maximal tumor growth inhibition [1]: 61.2%
- tumor volumes as compared to solvent controls [1]: significantly reduced tumor volumes
- bound to albumin fraction ([2]; t 0 h): 76%
- free (low molecular weight fraction) ([2]; t 0 h): 24%
- bound to albumin fraction ([2]; t 1 h): 100%
- free (low molecular weight fraction) ([2]; t 1 h): 0%
- bound to albumin fraction ([2]; t 4 h): 100%
- free (low molecular weight fraction) ([2]; t 4 h): 0%
- bound to albumin fraction ([2]; t 24 h): 97%
- free (low molecular weight fraction) ([2]; t 24 h): 3%
- increased serum platinum levels in comparison to oxaliplatin [3]: more than 20 fold
- number of mitotic tumor cells as compared to solvent controls ([4]; one week of therapy): significantly reduced
- DNA damage (pH2AX) in tumor ([4]; non-necrotic parts of the tumor): distinctly enhanced DNA damage as compared to oxaliplatin
- Ki-67 antiproliferative effect ([4]; non-necrotic tumor regions, one week of therapy): significantly stronger antiproliferative effect
- GSH content in malignant tissue ([4]; one week of therapy): significantly stronger effect
- serum half-life higher as compared to oxaliplatin ([5]; depending on the regression model used): more than 10 fold
- serum half-life (fast), two-phase decay model ([5]; single equimolar dose, mice): 1.217 h
- serum half-life (slow), two-phase decay model ([5]; single equimolar dose, mice): 22.28 h
- serum half-life, one-phase decay model ([5]; single equimolar dose, mice): 3.968 h
- increase of AUC (total area) as compared to oxaliplatin ([5]; single equimolar dose, mice): > 12 fold
- DNA damage (pH2AX) in healthy organs [6]: avoids renal DNA damage

Structure (SMILES): N.N.[Cl][Pt][Cl] [cisplatin, reference compound]
- IC50 ([7]; A2780/Cis, 72 h continuous exposure, read-out: IC50 value (95% confidence interval)): 7.7 µM
- resistance factor ([7]; IC50 A2780/Cis divided by IC50 A2780): 4.1
- IC50 [8]: 1.9 µM

Structure (SMILES): O=C1[O][Pt]2([NH][C@@H]3CCCC[C@H]3[NH]2)[O]C1=O [oxaliplatin, reference compound]
- IC50 [9]: > 10 µM
- tumor doubling time extended [1]: 1.3 fold
- maximal tumor growth inhibition [1]: 51.3%
- tumor volumes as compared to solvent controls [1]: significantly reduced tumor volumes
- impact on cellular GSH content [10]: did not alter the GSH content
- intracellular accumulation in HCT116/OxR as compared to parental HCT116 [11]: significantly reduced
- IC50 [12]: 3.4 µM
- IC50 [13]: 10.3 µM
- IC50 [14]: 0.58 µM
- number of mitotic tumor cells as compared to solvent controls ([4]; one week of therapy): significantly reduced
- GSH content in malignant tissue ([4]; one week of therapy): distinctly reduced the content of GSH
- serum half-life (fast), two-phase decay model ([5]; single equimolar dose, mice): 0.1528 h
- serum half-life (slow), two-phase decay model ([5]; single equimolar dose, mice): 15.38 h
- serum half-life, one-phase decay model ([5]; single equimolar dose, mice): 0.2624 h
- maximum tolerated dose (MTD) [15]: 9 mg/kg
- DNA damage (pH2AX) in healthy organs [6]: induced pH2AX-positive cells in both lung and kidney samples

Structure (SMILES): CCCCS(=N)(=O)CC[C@H](N)C(=O)O (stereo partly drawn) [BSO, L-Buthionine-S,R-sulfoximine]
- plasma half-life [16]: < 2 h
